# From PMC5708646, “Single-molecule study of full-length NaChBac by planar lipid bilayer recording” (PLoS ONE, 2017)
# Target: T1, NaChBac (Halalkalibacterium halodurans, UniProt Q9KCR8)
# T1 construct: gene BH1501
# T1 sequence (Q9KCR8 1-274): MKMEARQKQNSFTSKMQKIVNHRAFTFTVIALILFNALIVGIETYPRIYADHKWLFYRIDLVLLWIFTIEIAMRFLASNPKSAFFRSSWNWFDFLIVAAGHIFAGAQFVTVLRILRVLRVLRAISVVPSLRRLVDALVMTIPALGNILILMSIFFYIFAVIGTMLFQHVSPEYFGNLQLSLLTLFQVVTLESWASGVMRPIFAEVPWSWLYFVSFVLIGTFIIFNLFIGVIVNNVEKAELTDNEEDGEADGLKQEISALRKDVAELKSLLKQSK
# Test: planar lipid bilayer current recording, reconstituted purified channel
# Assay type: biochemical
# Details: block from the intracellular side, reversible on washout; concentration not printed for this test; step from -120 to +60 mV; POPE/POPG bilayer; pH 7.4
smiles,measurement,value
CC[N+](CC)(CC)CC(=O)Nc1c(C)cccc1C [lidocaine N-ethyl bromide],"planar lipid bilayer current recording, reconstituted purified channel",It was observed that the current completely dimished (red trace of Fig 3C)
